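Results reflect a 48-hour exposure of cells in 96-well plates to compound at five concentrations. The concentration for 50% growth inhibition is given as GI50. TGI: concentration producing complete growth inhibition.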
Experiments:
Experiment in all cases: NCI tumour cell line growth inhibition, 48 h
SW-620 colon = test system: SW-620 colon
SR leukemia = test system: SR leukemia
K-562 leukemia = test system: K-562 leukemia
SNB-19 CNS = test system: SNB-19 CNS
KM12 colon = test system: KM12 colon
HOP-62 NSCLC = test system: HOP-62 NSCLC
HCT-116 colon = test system: HCT-116 colon
HS 578T breast = test system: HS 578T breast
NCI/ADR-RES ovarian = test system: NCI/ADR-RES ovarian
HCT-15 colon = test system: HCT-15 colon
UACC-257 melanoma = test system: UACC-257 melanoma
LOX IMVI melanoma = test system: LOX IMVI melanoma
786-0 renal = test system: 786-0 renal
SN12C renal = test system: SN12C renal
SK-OV-3 ovarian = test system: SK-OV-3 ovarian
OVCAR-3 ovarian = test system: OVCAR-3 ovarian
SK-MEL-2 melanoma = test system: SK-MEL-2 melanoma
SK-MEL-5 melanoma = test system: SK-MEL-5 melanoma
MCF7 breast = test system: MCF7 breast
IGROV1 ovarian = test system: IGROV1 ovarian
CAKI-1 renal = test system: CAKI-1 renal
DU-145 prostate = test system: DU-145 prostate
OVCAR-5 ovarian = test system: OVCAR-5 ovarian
HT29 colon = test system: HT29 colon
SF-539 CNS = test system: SF-539 CNS
NCI-H226 lung = test system: NCI-H226 lung
SNB-75 CNS = test system: SNB-75 CNS
SK-MEL-28 melanoma = test system: SK-MEL-28 melanoma
MALME-3M melanoma = test system: MALME-3M melanoma
A549 NSCLC = test system: A549 NSCLC
CCRF-CEM leukemia = test system: CCRF-CEM leukemia
HL-60(TB) leukemia = test system: HL-60(TB) leukemia
A498 renal = test system: A498 renal
M14 melanoma = test system: M14 melanoma
SF-268 CNS = test system: SF-268 CNS
SF-295 CNS = test system: SF-295 CNS
RXF 393 renal = test system: RXF 393 renal
EKVX NSCLC = test system: EKVX NSCLC
TK-10 renal = test system: TK-10 renal
U251 CNS = test system: U251 CNS
RPMI-8226 leukemia = test system: RPMI-8226 leukemia
OVCAR-8 ovarian = test system: OVCAR-8 ovarian
MDA-MB-435 = test system: MDA-MB-435
NCI-H522 lung = test system: NCI-H522 lung
UO-31 renal = test system: UO-31 renal
MOLT-4 leukemia = test system: MOLT-4 leukemia
NCI-H23 lung = test system: NCI-H23 lung
BT-549 breast = test system: BT-549 breast
ACHN renal = test system: ACHN renal
OVCAR-4 ovarian = test system: OVCAR-4 ovarian
NCI-H460 lung = test system: NCI-H460 lung
COLO 205 colon = test system: COLO 205 colon
MDA-MB-231 breast = test system: MDA-MB-231 breast
HOP-92 NSCLC = test system: HOP-92 NSCLC
UACC-62 melanoma = test system: UACC-62 melanoma
T-47D breast = test system: T-47D breast

Question: With O=C1c2ccccc2-c2c1c1c(=O)[nH]c3ccccc3c1n2Cc1ccccc1 as the molecule, how does the GI50 (SW-620 colon) read?
Answer: > 100 µM

Question: And the TGI (SW-620 colon)?
Answer: > 100 µM

Question: And the GI50 (SR leukemia)?
Answer: > 100 µM

Question: What about the TGI (SR leukemia) of the same molecule?
Answer: > 100 µM

Question: And the GI50 (K-562 leukemia)?
Answer: > 100 µM

Question: What about the TGI (K-562 leukemia) of the same molecule?
Answer: > 100 µM

Question: And the GI50 (SNB-19 CNS)?
Answer: 25.1 µM

Question: And the TGI (SNB-19 CNS)?
Answer: 65.5 µM

Question: And the GI50 (KM12 colon)?
Answer: > 100 µM

Question: And the TGI (KM12 colon)?
Answer: > 100 µM

Question: And the GI50 (HOP-62 NSCLC)?
Answer: 25.6 µM

Question: What about the TGI (HOP-62 NSCLC) of the same molecule?
Answer: 49.1 µM

Question: And the GI50 (HCT-116 colon)?
Answer: 39.9 µM

Question: And the TGI (HCT-116 colon)?
Answer: > 100 µM

Question: And the GI50 (HS 578T breast)?
Answer: 16.5 µM

Question: What about the TGI (HS 578T breast) of the same molecule?
Answer: 35.7 µM

Question: And the GI50 (NCI/ADR-RES ovarian)?
Answer: 52.6 µM

Question: And the TGI (NCI/ADR-RES ovarian)?
Answer: > 100 µM

Question: And the GI50 (HCT-15 colon)?
Answer: 59.1 µM

Question: And the TGI (HCT-15 colon)?
Answer: > 100 µM

Question: And the GI50 (UACC-257 melanoma)?
Answer: > 100 µM

Question: And the TGI (UACC-257 melanoma)?
Answer: > 100 µM

Question: And the GI50 (LOX IMVI melanoma)?
Answer: 31.3 µM

Question: What about the TGI (LOX IMVI melanoma) of the same molecule?
Answer: > 100 µM

Question: And the GI50 (786-0 renal)?
Answer: 33 µM

Question: And the TGI (786-0 renal)?
Answer: 85 µM

Question: And the GI50 (SN12C renal)?
Answer: 35.9 µM

Question: And the TGI (SN12C renal)?
Answer: > 100 µM

Question: What about the GI50 (SK-OV-3 ovarian) of the same molecule?
Answer: 20.7 µM

Question: What about the TGI (SK-OV-3 ovarian) of the same molecule?
Answer: 45.8 µM

Question: What about the GI50 (OVCAR-3 ovarian) of the same molecule?
Answer: 35 µM

Question: And the TGI (OVCAR-3 ovarian)?
Answer: > 100 µM

Question: And the GI50 (SK-MEL-2 melanoma)?
Answer: > 100 µM

Question: What about the TGI (SK-MEL-2 melanoma) of the same molecule?
Answer: > 100 µM

Question: What about the GI50 (SK-MEL-5 melanoma) of the same molecule?
Answer: > 100 µM

Question: And the TGI (SK-MEL-5 melanoma)?
Answer: > 100 µM

Question: What about the GI50 (MCF7 breast) of the same molecule?
Answer: 35.8 µM

Question: And the TGI (MCF7 breast)?
Answer: > 100 µM

Question: What about the GI50 (IGROV1 ovarian) of the same molecule?
Answer: 29.9 µM

Question: What about the TGI (IGROV1 ovarian) of the same molecule?
Answer: 97.3 µM

Question: What about the GI50 (CAKI-1 renal) of the same molecule?
Answer: 33.5 µM

Question: And the TGI (CAKI-1 renal)?
Answer: > 100 µM

Question: And the GI50 (DU-145 prostate)?
Answer: 43.8 µM

Question: And the TGI (DU-145 prostate)?
Answer: > 100 µM

Question: What about the GI50 (OVCAR-5 ovarian) of the same molecule?
Answer: 49.5 µM

Question: And the TGI (OVCAR-5 ovarian)?
Answer: > 100 µM

Question: And the GI50 (HT29 colon)?
Answer: > 100 µM

Question: What about the TGI (HT29 colon) of the same molecule?
Answer: > 100 µM

Question: What about the GI50 (SF-539 CNS) of the same molecule?
Answer: 17.8 µM

Question: And the TGI (SF-539 CNS)?
Answer: 40.5 µM

Question: And the GI50 (NCI-H226 lung)?
Answer: 24.5 µM

Question: And the TGI (NCI-H226 lung)?
Answer: 67.4 µM

Question: What about the GI50 (SNB-75 CNS) of the same molecule?
Answer: 15.6 µM

Question: And the TGI (SNB-75 CNS)?
Answer: 30.1 µM

Question: What about the GI50 (SK-MEL-28 melanoma) of the same molecule?
Answer: 84.7 µM

Question: And the TGI (SK-MEL-28 melanoma)?
Answer: > 100 µM

Question: And the GI50 (MALME-3M melanoma)?
Answer: 37.1 µM

Question: What about the TGI (MALME-3M melanoma) of the same molecule?
Answer: > 100 µM

Question: What about the GI50 (A549 NSCLC) of the same molecule?
Answer: > 100 µM

Question: And the TGI (A549 NSCLC)?
Answer: > 100 µM

Question: And the GI50 (CCRF-CEM leukemia)?
Answer: > 100 µM

Question: What about the TGI (CCRF-CEM leukemia) of the same molecule?
Answer: > 100 µM

Question: And the GI50 (HL-60(TB) leukemia)?
Answer: > 100 µM

Question: What about the TGI (HL-60(TB) leukemia) of the same molecule?
Answer: > 100 µM

Question: What about the GI50 (A498 renal) of the same molecule?
Answer: 21.1 µM

Question: And the TGI (A498 renal)?
Answer: 50.6 µM

Question: And the GI50 (M14 melanoma)?
Answer: > 100 µM

Question: What about the TGI (M14 melanoma) of the same molecule?
Answer: > 100 µM

Question: What about the GI50 (SF-268 CNS) of the same molecule?
Answer: 17.7 µM

Question: What about the TGI (SF-268 CNS) of the same molecule?
Answer: 48.7 µM

Question: And the GI50 (SF-295 CNS)?
Answer: 17.2 µM

Question: What about the TGI (SF-295 CNS) of the same molecule?
Answer: 40.9 µM

Question: And the GI50 (RXF 393 renal)?
Answer: 29.7 µM

Question: And the TGI (RXF 393 renal)?
Answer: 70.4 µM

Question: And the GI50 (EKVX NSCLC)?
Answer: 30.4 µM

Question: What about the TGI (EKVX NSCLC) of the same molecule?
Answer: 99.5 µM

Question: And the GI50 (TK-10 renal)?
Answer: 15.1 µM

Question: And the TGI (TK-10 renal)?
Answer: 29.2 µM

Question: What about the GI50 (U251 CNS) of the same molecule?
Answer: 16.6 µM

Question: What about the TGI (U251 CNS) of the same molecule?
Answer: 34.1 µM

Question: And the GI50 (RPMI-8226 leukemia)?
Answer: > 100 µM

Question: And the TGI (RPMI-8226 leukemia)?
Answer: > 100 µM

Question: What about the GI50 (OVCAR-8 ovarian) of the same molecule?
Answer: 51 µM

Question: And the TGI (OVCAR-8 ovarian)?
Answer: > 100 µM

Question: And the GI50 (MDA-MB-435)?
Answer: > 100 µM

Question: What about the TGI (MDA-MB-435) of the same molecule?
Answer: > 100 µM

Question: What about the GI50 (NCI-H522 lung) of the same molecule?
Answer: 42.7 µM

Question: And the TGI (NCI-H522 lung)?
Answer: > 100 µM

Question: And the GI50 (UO-31 renal)?
Answer: > 100 µM

Question: And the TGI (UO-31 renal)?
Answer: > 100 µM

Question: And the GI50 (MOLT-4 leukemia)?
Answer: > 100 µM

Question: And the TGI (MOLT-4 leukemia)?
Answer: > 100 µM

Question: What about the GI50 (NCI-H23 lung) of the same molecule?
Answer: 20.5 µM

Question: And the TGI (NCI-H23 lung)?
Answer: 46.8 µM

Question: What about the GI50 (BT-549 breast) of the same molecule?
Answer: 19.5 µM

Question: And the TGI (BT-549 breast)?
Answer: 34.7 µM

Question: And the GI50 (ACHN renal)?
Answer: 13 µM

Question: And the TGI (ACHN renal)?
Answer: 25.6 µM

Question: What about the GI50 (OVCAR-4 ovarian) of the same molecule?
Answer: 45.4 µM

Question: What about the TGI (OVCAR-4 ovarian) of the same molecule?
Answer: > 100 µM

Question: What about the GI50 (NCI-H460 lung) of the same molecule?
Answer: 61.7 µM

Question: What about the TGI (NCI-H460 lung) of the same molecule?
Answer: > 100 µM

Question: What about the GI50 (COLO 205 colon) of the same molecule?
Answer: > 100 µM

Question: And the TGI (COLO 205 colon)?
Answer: > 100 µM

Question: And the GI50 (MDA-MB-231 breast)?
Answer: 20.5 µM

Question: And the TGI (MDA-MB-231 breast)?
Answer: 48 µM

Question: What about the GI50 (HOP-92 NSCLC) of the same molecule?
Answer: 15.8 µM

Question: And the TGI (HOP-92 NSCLC)?
Answer: 51.5 µM

Question: And the GI50 (UACC-62 melanoma)?
Answer: 33.8 µM

Question: What about the TGI (UACC-62 melanoma) of the same molecule?
Answer: > 100 µM

Question: And the GI50 (T-47D breast)?
Answer: 34.3 µM

Question: And the TGI (T-47D breast)?
Answer: > 100 µM

— PubChem BioAssay (NCI)
